According to PubChem BioAssay (NCI):
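The concentration for 50% growth inhibition is given as GI50. TGI denotes the concentration required for complete inhibition of growth.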

Assays:
Experiment in all cases: NCI tumour cell line growth inhibition, 384-well format
[1] = tested on: 786-0 renal
[2] = tested on: A498 renal
[3] = tested on: A549 NSCLC
[4] = tested on: ACHN renal
[5] = tested on: BT-549 breast
[6] = tested on: CAKI-1 renal
[7] = tested on: COLO 205 colon
[8] = tested on: DU-145 prostate
[9] = tested on: EKVX NSCLC
[10] = tested on: HCT-116 colon
[11] = tested on: HCT-15 colon
[12] = tested on: HL-60(TB) leukemia
[13] = tested on: HOP-62 NSCLC
[14] = tested on: HOP-92 NSCLC
[15] = tested on: HS 578T breast
[16] = tested on: HT29 colon
[17] = tested on: IGROV1 ovarian
[18] = tested on: K-562 leukemia
[19] = tested on: KM12 colon
[20] = tested on: M14 melanoma
[21] = tested on: MALME-3M melanoma
[22] = tested on: MCF7 breast
[23] = tested on: MDA-MB-231 breast
[24] = tested on: MDA-MB-435 melanoma
[25] = tested on: MDA-MB-468 breast
[26] = tested on: MOLT-4 leukemia
[27] = tested on: NCI-H226 lung
[28] = tested on: NCI-H23 lung
[29] = tested on: NCI-H322M lung
[30] = tested on: NCI-H460 NSCLC
[31] = tested on: NCI-H522 lung
[32] = tested on: OVCAR-3 ovarian
[33] = tested on: OVCAR-4 ovarian
[34] = tested on: OVCAR-5 ovarian
[35] = tested on: OVCAR-8 ovarian
[36] = tested on: PC-3 prostate
[37] = tested on: RXF 393 renal
[38] = tested on: SF-268 CNS
[39] = tested on: SF-295 CNS
[40] = tested on: SF-539 CNS
[41] = tested on: SK-MEL-2 melanoma
[42] = tested on: SK-MEL-28 melanoma
[43] = tested on: SK-MEL-5 melanoma
[44] = tested on: SK-OV-3 ovarian
[45] = tested on: SN12C renal
[46] = tested on: SNB-19 CNS
[47] = tested on: SNB-75 CNS
[48] = tested on: SR leukemia
[49] = tested on: SW-620 colon
[50] = tested on: T-47D breast
[51] = tested on: TK-10 renal
[52] = tested on: U251 glioblastoma
[53] = tested on: UACC-257 melanoma
[54] = tested on: UACC-62 melanoma
[55] = tested on: UO-31 renal

## C[C@@H]1Cc2c([nH]c3ccccc23)[C@@H](c2c(F)cc(NC3CN(CCCF)C3)cc2F)N1CC(F)(F)CO
[1]
  GI50: 1820 nM
  TGI: 3230 nM
[2]
  GI50: 1450 nM
  TGI: 2820 nM
[3]
  GI50: 4100 nM
  TGI: 14500 nM
[4]
  GI50: 1710 nM
  TGI: 3160 nM
[5]
  GI50: 1440 nM
  TGI: 2850 nM
[6]
  GI50: 1660 nM
  TGI: 3250 nM
[7]
  GI50: 2070 nM
  TGI: 3560 nM
[8]
  GI50: 2500 nM
  TGI: 6500 nM
[9]
  GI50: 1870 nM
  TGI: 6390 nM
[10]
  GI50: 1780 nM
  TGI: 3210 nM
[11]
  GI50: 1950 nM
  TGI: 3740 nM
[12]
  GI50: 1390 nM
  TGI: 2690 nM
[13]
  GI50: 2370 nM
  TGI: 6240 nM
[14]
  GI50: 1790 nM
  TGI: 3680 nM
[15]
  GI50: 1410 nM
  TGI: 2730 nM
[16]
  GI50: 1710 nM
  TGI: 3130 nM
[17]
  GI50: 1840 nM
  TGI: 4330 nM
[18]
  GI50: 1590 nM
  TGI: 2950 nM
[19]
  GI50: 1730 nM
  TGI: 3160 nM
[20]
  GI50: 1780 nM
  TGI: 3170 nM
[21]
  GI50: 1550 nM
  TGI: 2890 nM
[22]
  TGI: 1410 nM
[23]
  GI50: 3540 nM
  TGI: 12100 nM
[24]
  GI50: 1730 nM
  TGI: 3110 nM
[25]
  GI50: 1330 nM
  TGI: 2750 nM
[26]
  GI50: 1390 nM
  TGI: 2680 nM
[27]
  GI50: 2350 nM
  TGI: 7780 nM
[28]
  GI50: 5520 nM
  TGI: 16900 nM
[29]
  GI50: 2810 nM
  TGI: 6540 nM
[30]
  GI50: 1470 nM
  TGI: 2860 nM
[31]
  GI50: 2360 nM
  TGI: 4630 nM
[32]
  GI50: 1880 nM
  TGI: 4050 nM
[33]
  GI50: 1320 nM
  TGI: 4650 nM
[34]
  GI50: 4090 nM
  TGI: 15400 nM
[35]
  GI50: 2700 nM
  TGI: 8090 nM
[36]
  GI50: 1840 nM
  TGI: 3880 nM
[37]
  GI50: 1340 nM
  TGI: 2880 nM
[38]
  GI50: 1950 nM
  TGI: 4110 nM
[39]
  GI50: 1970 nM
  TGI: 3680 nM
[40]
  GI50: 1640 nM
  TGI: 3250 nM
[41]
  GI50: 1630 nM
  TGI: 2980 nM
[42]
  GI50: 1600 nM
  TGI: 2960 nM
[43]
  GI50: 1490 nM
  TGI: 2820 nM
[44]
  GI50: 1830 nM
  TGI: 3910 nM
[45]
  GI50: 4890 nM
  TGI: 16500 nM
[46]
  GI50: 10600 nM
  TGI: 22400 nM
[47]
  GI50: 1430 nM
  TGI: 3220 nM
[48]
  GI50: 1670 nM
  TGI: 3030 nM
[49]
  GI50: 1710 nM
  TGI: 3120 nM
[50]
  GI50: 1300 nM
  TGI: 2690 nM
[51]
  GI50: 1750 nM
  TGI: 3260 nM
[52]
  GI50: 1770 nM
  TGI: 3320 nM
[53]
  GI50: 1560 nM
  TGI: 2910 nM
[54]
  GI50: 1580 nM
  TGI: 2950 nM
[55]
  GI50: 1780 nM
  TGI: 3810 nM
